In patent publication US20240156817A1, “TREATMENTS FOR PAIN” (Sevenless Therapeutics Limited, priority 2021, published 2024):

Key:
[1] = test system: CFA-(Complete Freunds Adjuvant) induced hypersensitivity; assay: CFA-induced hypersensitivity using weight-bearing in the C57BI6 mouse; assay type: in vivo
Protocol: On 3 days before CFA dose: habituation to WB apparatus, baseline readings are taken once. 24 h before dosing: intraplantar injection of 20 μl of CFA 1.5 mg/ml to the left hind paw. 1 h before dosing: post-CFA readings are taken for WB. […] Naive animals distribute their body weight equally between the two hind paws. However, when a painful insult is given to one hindpaw (i.e., sciatic nerve constriction or CFA intraplantar injection), the weight is re-distributed so that less weight is put on the affected paw (with a decrease in weight bearing on the injured paw). Animals were placed in the incapacitance tester (Linton Instruments, UK) with the hind paws on separate sensors. The average forces exerted by the left and the right hindlimb were recorded over 2 s. Weight-bearing readings were taken for both left and right hind paws. The ratio ipsilateral/contralateral was calculated and expressed in % (mean±s.e.m.). Statistics: Two-Way RM Mixed model (treatment×repeated factor: time) (InVivoStat v3.7.0.0)

[2] = test system: pain models (knee osteoarthritis pain, arthritic joint, auto-immune arthritis); details: rats as printed; cited papers say mouse; cited from earlier work
[3] = test system: Nerve Growth Factor (NGF) stimulated phospho-ERK1/2 activation in PC-12 cells; assay: Inhibition of NGF stimulated pERK1/2 activation in the PC-12 cell line (HTRF), alone and combined with anti-NGF; assay type: cell-based, rat
Protocol: Homogeneous Time-Resolved Fluorescence (HTRF) assay:
Reagents from the HTRF commercial kit (Cisbio) were prepared according to the manufacturer's instructions.
PC-12 cells were isolated from routine cellular culture and plated at an appropriate cell density in 384-well plates (typically 25,000 cells per well) for 24 hours under serum-starved conditions. […] Following the 30-minute compound pre-incubation, PC-12 cells were treated with NGF (titrations of NGF from 250 ng/mL to 10 ng/mL were tested), and subsequently incubated for a 5-minute period (37° C./5% CO2). […] A 2-hour incubation at room temperature was performed prior to fluorescence signal determination using a microplate reader (PHERAstar FSX, BMG Labtech).
Percentage inhibition values were calculated per compound concentration by normalising the sample data to the high and low controls used within each plate (+/−25 ng/mLNGF respectively). […]
PC-12 cells were isolated from routine cellular culture and plated at an appropriate cell density (typically 25,000 cells per well) in 384-well plates for 24 hours under serum-starved conditions. […] A 2-hour incubation at room temperature was performed prior to fluorescence signal being measured in a microplate reader (PHERAstar FSX, BMG Labtech). […]

## Tanezumab: an anti-NGF antibody, pain drug candidate
[1]; Tanezumab 3 mg/kg, DRUG TREATED 0.5 h (approx)
  weight-bearing, ratio ipsilateral/contralateral (mean): 82.54%
[1]; Tanezumab 3 mg/kg, DRUG TREATED 8.5 h (approx)
  weight-bearing, ratio ipsilateral/contralateral (mean): 94.11%
[1]; Tanezumab 3 mg/kg, DRUG TREATED 24.5 h (approx)
  weight-bearing, ratio ipsilateral/contralateral (mean): 89.88%
[1]; Tanezumab 3 mg/kg, DRUG TREATED 32.5 h (approx)
  weight-bearing, ratio ipsilateral/contralateral (mean): 84.25%
[1]; combination study, Tanezumab 3 mg/kg i.p. alone, DRUG TREATED (d2 PM)
  weight-bearing, ratio ipsilateral/contralateral (mean): 99.84%
[2]
  dose at which efficacy is shown (scientific literature): 10 mg/kg
[3]; Tanezumab at a concentration of 50 nM
  efficacy: 90%
[3]; tanezumab at a concentration of 200 nM
  efficacy: 100%
